Assay results taken from patent publication US11576859B2, “Gastric residence systems for sustained release of therapeutic agents and methods of use thereof” (Lyndra Therapeutics, Inc., priority 2015, dated 2023).
Converted amounts (≈) assume the structure as drawn.

Experiments:
[1] = PCL/SGF partition coefficient; type: physicochemical; conditions: 5:1 PCL diol (MW 530):ethyl acetate versus FaSSGF
Experimental: Partitioning of active pharmaceutical ingredient (API) between the structural polymer, polycaprolactone (PCL), and fasted state simulated gastric fluid (FaSSGF) is of interest for predicting API release rate from PCL-based formulations. To measure the PCL-SGF partition coefficient of an API, a concentrated stock solution of API was added to a mixture of 1 mL FaSSGF and 1 mL of 5:1 PCL diol (MW 530):ethyl acetate. The sample was vortexed and centrifuged at 10000 rpm for 5 minutes. The SGF phase was analyzed by HPLC to measure drug concentration. The PCL phase was diluted in methanol prior to quantification on HPLC.

[2] = method not given; cited from earlier work
[3] = Rosuvastatin forced degradation in solution and in polycaprolactone formulation; type: physicochemical; conditions: Heat: 1 mg/mL drug in DMSO, 1 h
[4] = as above; type: physicochemical
Experimental: SOLUTION CONDITIONS: For acid degradation studies, rosuvastatin was dissolved to 1 mg/mL in 0.1M HCl and heated for the specified time and temperature. For alkaline degradation, rosuvastatin was dissolved to 1 mg/mL in 0.1M NaOH and heated to 80° C. for 1 h. For oxidative degradation, rosuvastatin was dissolved to 1 mg/mL in 30% hydrogen peroxide and heated to 80° C. for 30 min. For stability over time, rosuvastatin was dissolved to 1 mg/mL in water at room temperature for 5 days. For thermal degradation studies in solution, rosuvastatin was dissolved to 1 mg/mL in dimethylsulfoxide and heated to the specified temperature for 2 h. In each case, samples of the solution were diluted in methanol and analyzed by LCMS to determine the ratio of intact drug to degraded drug.
POLYMER CONDITIONS: For thermal degradation studies in formulation, rosuvastatin was blended with PCL at a ratio of 25:75 drug:PCL and the blend was heated to the specified temperature for 2 h. The drug-polymer blend was then dissolved in dichloromethane and this solution was added to excess methanol to precipitate PCL. Samples of the methanol solution were then analyzed by LCMS to determine the ratio of intact drug to degraded drug.

[5] = physchem; conditions: water, thermodynamic from solid
Source text: First, various surfactants were screened for their ability to improve aripiprazole solubility in FaSSGF and water. Equilibrium solubility of aripiprazole in the presence of surfactants was estimated in water and FaSSGF by the procedure described in Example 50.

[6] = Aripiprazole stability versus processing temperature
[7] = physchem; conditions: thermodynamic from solid
[8] = Time dependent thermal processing stability of aripiprazole at 100 °C; conditions: for Visual Observation / Impurity % 0.86 RRT: extruded at 100 °C
[9] = oral, once daily; cited from earlier work
[10] = extruded at 90 °C, same formulation
[11] = extruded at 100 °C, same formulation
[12] = extruded at 120 °C, same formulation
[13] = extruded at 140 °C, same formulation
[14] = extruded at 160 °C, same formulation
[15] = extruded at 180 °C, same formulation

Ivermectin
LogP (PCL/SGF) [1]: 2.60 | PCL/SGF Partition Coefficient [1]: 398 | LogP (Octanol/water) [2]: 4.1

CC(C)c1nc(N(C)S(C)(=O)=O)nc(-c2ccc(F)cc2)c1/C=C/[C@@H](O)C[C@@H](O)CC(=O)[O-].CC(C)c1nc(N(C)S(C)(=O)=O)nc(-c2ccc(F)cc2)c1/C=C/[C@@H](O)C[C@@H](O)CC(=O)[O-].[Ca+2] [Rosuvastatin calcium]
% Intact drug ([3]; 100 C.): 86% | % Intact drug ([3]; 120 C.): >95% | % Intact drug ([4]; Acid: 0.1N HCl, 37 C., 2 d): 66% | % Intact drug ([4]; Acid: 0.1N HCl, 37 C., overnight, 1 mg/mL): 87% | % Intact drug ([4]; Acid: 0.1N HCl, 50 C., 4 h): 93% | % Intact drug ([4]; Acid: 0.1N HCl, 50 C., overnight): 58% | % Intact drug ([4]; Acid: 0.1N HCl, 80 C., 1 h): ~100% | % Intact drug ([4]; Base: 0.1M NaOH, 80 C., 1 h): ~100% | % Intact drug ([4]; Heat: 1 mg/mL drug in DMSO, 100 C., 2 h): 86% | % Intact drug ([4]; Heat: 1 mg/mL drug in DMSO, 120 C., 2 h): 77% | % Intact drug ([4]; Oxidation: 30% H2O2, 80 C., 30 min): ~100% | % Intact drug ([4]; Polymer-blended: 25% drug in polycaprolactone, 100 C., 2 h): >95% | % Intact drug ([4]; Polymer-blended: 25% drug in polycaprolactone, 120 C., 2 h): >95% | % Intact drug ([4]; Time: 1 mg/mL drug in water, room temperature, 5 days): 62%

O=C1CCc2ccc(OCCCCN3CCN(c4cccc(Cl)c4Cl)CC3)cc2N1 [Aripiprazole]
solubility [5]: ~0.456 µg/mL (≈ 1.02 µM) | LogP (PCL/SGF) [1]: 1.67 | PCL/SGF Partition Coefficient [1]: 49 | Visual Observation ([6]; extruded at 90 °C, 10 min batch mixing 75 rpm, 20% Aripiprazole/10% Kolliphor P407/10% Eudragit EPO/80 K PCL formulation): White | % Impurity Total [6, 10]: <0.05% | % Impurity at RRT 0.64 [6, 10]: <0.05% | % Impurity Total [6, 11]: <0.05% | % Impurity at RRT 0.64 [6, 11]: <0.05% | Visual Observation [6, 11]: White | % Impurity Total [6, 12]: <0.05% | % Impurity at RRT 0.64 [6, 12]: <0.05% | Visual Observation [6, 12]: White | % Impurity Total [6, 13]: 0.14% | % Impurity at RRT 0.64 [6, 13]: <0.05% | % Impurity at RRT 0.86 [6, 13]: 0.14% | Visual Observation [6, 13]: Slight pink | % Impurity Total [6, 14]: 0.21% | % Impurity at RRT 0.22 [6, 14]: 0.08% | % Impurity at RRT 0.42 [6, 14]: 0.08% | % Impurity at RRT 0.64 [6, 14]: 0.05% | Visual Observation [6, 14]: Brown | % Impurity Total [6, 15]: 0.60% | % Impurity at RRT 0.22 [6, 15]: 0.28% | % Impurity at RRT 0.42 [6, 15]: 0.12% | % Impurity at RRT 0.64 [6, 15]: 0.07% | % Impurity at RRT 0.71 [6, 15]: <0.05% | % Impurity at RRT 0.81 [6, 15]: 0.05% | % Impurity at RRT 0.93 [6, 15]: 0.08% | Visual Observation [6, 15]: Brown | LogP (Octanol/water) [2]: 5.59 | solubility ([7]; pH 1.06, simulated gastric fluid): 500 µg/mL (≈ 1120 µM) | solubility ([7]; pH 3, aqueous buffer): 120 µg/mL (≈ 268 µM) | solubility ([7]; pH 4.65, aqueous buffer): 110 µg/mL (≈ 245 µM) | degradation at 100 °C at all the timepoints ([8]; 5 to 30 minutes extrusion, same formulation): no significant degradation | Visual Observation ([8]; 5 min, 75 rpm, 20% aripiprazole/10% Kolliphor P407/10% Eudragit EPO/80 K PCL formulation): White colored extrudate | Impurity % 0.86 RRT ([8]; 5 min, same formulation): 0.08% | Impurity % 0.86 RRT ([8]; 10 min, same formulation): 0.08% | Visual Observation ([8]; 10 min, same formulation): White colored extrudate | Impurity % 0.86 RRT ([8]; 15 min, same formulation): 0.08% | Visual Observation ([8]; 15 min, same formulation): White colored extrudate | Impurity % 0.86 RRT ([8]; 20 min, same formulation): 0.08% | Visual Observation ([8]; 20 min, same formulation): White colored extrudate | Impurity % 0.86 RRT ([8]; 30 min, same formulation): 0.08% | Visual Observation ([8]; 30 min, same formulation): White colored extrudate

Doxycycline Hyclate
LogP (PCL/SGF) [1]: 0.27 | PCL/SGF Partition Coefficient [1]: 1.88 | LogP (Octanol/water) [2]: −1.9

Cc1nc2n(c(=O)c1CCN1CCC(c3noc4cc(F)ccc34)CC1)CCCC2 [Risperidone]
PCL/SGF Partition Coefficient [1]: 0.03

CC(C)c1nc(N(C)S(C)(=O)=O)nc(-c2ccc(F)cc2)c1/C=C/[C@@H](O)C[C@@H](O)CC(=O)O [Rosuvastatin]
acid stability in PCL formulation versus in solution ([4]; FIG. 20): protects the drug from acid degradation | thermal stability in PCL formulation versus in solution ([4]; FIG. 21): protects the drug from degradation at elevated temperatures | elimination half-life [9]: approximately 19 hours

CC12CC3CC(C)(C1)CC(N)(C3)C2 [Memantine]
LogP (PCL/SGF) [1]: −0.56 | PCL/SGF Partition Coefficient [1]: 0.28
